The solubility is how much of the substance goes into solution per volume. For orientation: solubility (thermodynamic) means the concentration in solution at equilibrium with solid.

Here are results for five molecules from patent US11753386B2, “Processes for preparing a MDM2 inhibitor” (Amgen, Inc., priority 2018, dated 2023).

Common to all, as to type: physicochemical
A short description of series [1]: Solubility in acetonitrile/water (9/1 volume ratio). The note with it: organic solvent or mixture, 10° C.
Series [2] can be described thus: Supernatant concentration at end of crystallization. The following applies: 20° C. How it is done: Cooling to 20° C. in 2 hours prompts another 60% of the material to crystallize. Four volumes of heptane are subsequently added to lower the supernatant concentration to approximately 5 mg/mL in preparation for batch filtration.
A curve showing solubility values at different time points in the crystallization process is represented in FIG. 16. […] One volume of water is subsequently added to lower the supernatant concentration to approximately 5 mg/mL in preparation for a rapid batch filtration. Three water washings (3×10 volumes) were conducted to minimize the presence of residual acetic acid in the isolated material.

The nature of series [3]: Particle size distribution pre and post dry-milling.
Series [4] in a line: Equilibrium solubility measurements for DHO in various solvents. The note with it: thermodynamic from solid, 20° C. How it is done: Equilibrium solubility measurements were gathered for DHO in various solvents. It was observed that all values obtained were above 20 mg/mL at 20° C. (including heptane) except for water (<0.1 mg/mL), which was thus selected as an anti-solvent. […] Using this protocol, crystalline DHO was isolated in 88% yield from DLAC in a >98 LC area % (Scheme 9).

Where [5] appears, read: milled (Pallman Universal Mill).

On to `CC(C)[C@@H](CS(=O)(=O)C(C)C)N1C(=O)[C@@](C)(CC=O)C[C@H](c2cccc(Cl)c2)C1c1ccc(Cl)cc1` (stereo partly drawn) [ALD], for which, in series [1], the solubility came out at 21 mg/mL.
On to `CC(C)[C@@H](CS(=O)(=O)C(C)C)N1C(=O)[C@@](C)(CC(=O)O)CC(c2cccc(Cl)c2)C1c1ccc(Cl)cc1` (stereo partly drawn) [Compound 232-DAB], for which the Supernatant concentration result in series [2] (isopropyl acetate (4 volumes) / heptane (4 volumes)) is “approximately 5 mg/mL”.
`CC(C)[C@@H](CS(=O)(=O)C(C)C)N1C(=O)[C@@](C)(CC(=O)O)C[C@H](c2cccc(Cl)c2)[C@H]1c1ccc(Cl)cc1` [Compound A, 2-((3R,5R,6S)-5-(3-chlorophenyl)-6-(4-chlorophenyl)-1-((S)-1-(isopropylsulfonyl)-3-methylbutan-2-yl)-3-methyl-2-oxopiperidin-3-yl)acetic acid]: in series [2] (acetic acid (6.6 volumes) / water (4.4 + 1 volumes)), the Supernatant concentration entry is “approximately 5 mg/mL”. In series [3] (setting [5]), this molecule registered a d10 of 3.2 μm, a d50 of 19.1 μm and a d90 of 43.7 μm. Also, in series [3] (unmilled), the d10 turned out to be 14.6 μm, the d50 was 42.5 μm and the d90 turned out to be 102 μm.
Turning to `C=CC[C@@](C)(C[C@H](c1cccc(Cl)c1)[C@@H](O)c1ccc(Cl)cc1)C1=N[C@@H](C(C)C)CO1` [DHO, (1R,2R,4S)-2-(3-chlorophenyl)-1-(4-chlorophenyl)-4-((S)-4-isopropyl-4,5-dihydrooxazol-2-yl)-4-methylhept-6-en-1-ol], the solubility (thermodynamic) is greater than 20 mg/mL in series [4] (organic solvent or mixture, various solvents (including heptane) except water) and less than 0.1 mg/mL in series [4] (water).
For `C=CC[C@@]1(C)C[C@H](c2cccc(Cl)c2)[C@@H](c2ccc(Cl)cc2)N([C@H](CS(=O)(=O)C(C)C)C(C)C)C1=O` [SUL, (3S,5R,6S)-3-allyl-5-(3-chlorophenyl)-6-(4-chlorophenyl)-1-((S)-1-(isopropylsulfonyl)-3-methylbutan-2-yl)-3-methylpiperidin-2-one], the solubility in series [1] is 25 mg/mL.
